Where “and” joins values, the source holds several entries; their conditions need not be identical. Identical values can stand only once. Inconclusive results and toxic doses are left out. Cut-off read from the data, not from the text of the source: active = T/C of 150% or more; inactive = T/C below 125%.
System: L1210 leukemia ip in BDF1 mice, survival T/C
Experiment: NCI In Vivo Anticancer Drug Screen. Data for tumor model L1210 Leukemia (intraperitoneal) in B6D2F1 (BDF1) mice
Settings: endpoint: mean survival time, higher = longer survival
How it was run: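 In this screen, tumor-bearing mice given compound are compared to those given vehicle, and their survival values are reported as a treated-to-control quotient.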

[1] = dose: 100.0 mg/kg/injection, schedule: Q01DX009 (ip), vehicle: saline with Tween-80
[2] = dose: 100.0 mg/kg/injection, schedule: Q04DX003 (ip), vehicle: saline with Tween-80
[3] = dose: 200.0 mg/kg/injection, schedule: Q01DX009 (ip), vehicle: saline with Tween-80
[4] = dose: 200.0 mg/kg/injection, schedule: Q04DX003 (ip), vehicle: saline with Tween-80
[5] = dose: 400.0 mg/kg/injection, schedule: Q01DX009 (ip), vehicle: saline with Tween-80
[6] = dose: 400.0 mg/kg/injection, schedule: Q04DX003 (ip), vehicle: saline with Tween-80
[7] = dose: 25.0 mg/kg/injection, schedule: Q04DX003 (ip), vehicle: saline with Tween-80
[8] = dose: 50.0 mg/kg/injection, schedule: Q04DX003 (ip), vehicle: saline with Tween-80
[9] = dose: 100.0 mg/kg/injection, schedule: Q04DX002 (ip), vehicle: saline with Tween-80
[10] = dose: 200.0 mg/kg/injection, schedule: Q04DX002 (ip), vehicle: saline with Tween-80
[11] = dose: 400.0 mg/kg/injection, schedule: Q04DX002 (ip), vehicle: saline with Tween-80
[12] = dose: 100.0 mg/kg/injection, schedule: Q01DX001 (ip), vehicle: saline
[13] = dose: 200.0 mg/kg/injection, schedule: Q01DX001 (ip), vehicle: saline
[14] = dose: 100.0 mg/kg/injection, schedule: Q04DX003 (ip), vehicle: Klucel (hydroxypropylcellulose) (HPC)
[15] = dose: 100.0 mg/kg/injection, schedule: Q01DX009 (ip), vehicle: Klucel (hydroxypropylcellulose) (HPC)
[16] = dose: 100.0 mg/kg/injection, schedule: Q04DX002 (ip), vehicle: Klucel (hydroxypropylcellulose) (HPC)
[17] = dose: 200.0 mg/kg/injection, schedule: Q04DX002 (ip), vehicle: Klucel (hydroxypropylcellulose) (HPC)
[18] = dose: 400.0 mg/kg/injection, schedule: Q04DX002 (ip), vehicle: Klucel (hydroxypropylcellulose) (HPC)
[19] = dose: 400.0 mg/kg/injection, schedule: Q01DX001 (ip), vehicle: saline

Measured: T/C

N#Cc1c(N)sc2c1CCCC2
inactive: [1] 98 % of control | [2] 102 % of control | [3] 95 % of control | [4] 98 % of control | [5] 101 % of control | [6] 101 % of control

O/N=C1\CCc2ccccc2C(O)C1c1ccccc1 (stereo not given)
inactive: [2] 97 % of control | [4] 102 % of control | [6] 88 % of control

Nc1nc(N)c(N=Nc2ccc(Cl)cc2)c(Cl)n1
inactive: dose: 100.0 mg/kg/injection, schedule: Q01DX001 (ip), vehicle: carboxymethylcellulose (CMC) 94 % of control | dose: 200.0 mg/kg/injection, schedule: Q01DX001 (ip), vehicle: carboxymethylcellulose (CMC) 97 % of control | dose: 400.0 mg/kg/injection, schedule: Q01DX001 (ip), vehicle: carboxymethylcellulose (CMC) 94 % of control

Cc1cc[n+](Cc2ccccc2Cl)cc1
inactive: dose: 6.25 mg/kg/injection, schedule: Q01DX009 (ip), vehicle: saline 97 % of control | dose: 6.25 mg/kg/injection, schedule: Q04DX003 (ip), vehicle: saline 96 % of control | dose: 12.5 mg/kg/injection, schedule: Q01DX009 (ip), vehicle: saline 97 % of control | dose: 12.5 mg/kg/injection, schedule: Q04DX003 (ip), vehicle: saline 107 % of control | dose: 25.0 mg/kg/injection, schedule: Q01DX009 (ip), vehicle: saline 100 % of control | dose: 25.0 mg/kg/injection, schedule: Q04DX003 (ip), vehicle: saline 89 % of control

COc1ccc(N=NNc2ccc(OC)cc2)cc1
inactive: dose: 6.25 mg/kg/injection, schedule: Q01DX009 (ip), vehicle: saline with Tween-80 101 % of control | dose: 12.5 mg/kg/injection, schedule: Q01DX009 (ip), vehicle: saline with Tween-80 102 % of control | dose: 12.5 mg/kg/injection, schedule: Q04DX003 (ip), vehicle: saline with Tween-80 97 % of control | dose: 25.0 mg/kg/injection, schedule: Q01DX009 (ip), vehicle: saline with Tween-80 98 % of control and 90 % of control | [7] 95 % of control | [8] 97 % of control | [2] 98 % of control

CC(=O)NC1CCC(Cc2ccccc2)CC1 (stereo not given)
inactive: [9] 97 % of control | [10] 90 % of control | [11] 116 % of control

CCC(SC(CC)C(=O)O)C(=O)O (stereo not given)
inactive: [12] 98 % of control | [13] 94 % of control

Cc1ccc(S(=O)(=O)NC(N)=NCCCC(NC(=O)OC(C)(C)C)C(=O)O)cc1 (stereo not given)
inactive: [1] 89 % of control | [3] 86 % of control | [5] 86 % of control

CC1(C)N=C(N)N=C(N)N1c1cc(Cl)cc(CCCCc2ccc(S(=O)(=O)F)cc2)c1
inactive: dose: 25.0 mg/kg/injection, schedule: Q04DX003 (ip), vehicle: Klucel (hydroxypropylcellulose) (HPC) 109 % of control | dose: 50.0 mg/kg/injection, schedule: Q04DX003 (ip), vehicle: Klucel (hydroxypropylcellulose) (HPC) 112 % of control | [14] 107 % of control and 118 % of control

CCOC(=O)C(C)CC(=O)c1ccccc1 (stereo not given)
inactive: dose: 50.0 mg/kg/injection, schedule: Q01DX009 (ip), vehicle: saline with Tween-80 106 % of control | [1] 107 % of control | [9] 95 % of control | [10] 95 % of control

c1ccc2c(c1)c1c(n2N2CCCCC2)CCC1
inactive: [9] 90 % of control | [10] 95 % of control

O=C(c1ccccc1)c1[nH]c2ccccc2c1-c1ccccc1
inactive: [9] 103 % of control | [10] 107 % of control | [11] 100 % of control

COc1ccc(CCn2ccc(C(=O)O)cc2=O)cc1OC
inactive: [15] 89 % of control | [14] 91 % of control | dose: 200.0 mg/kg/injection, schedule: Q01DX009 (ip), vehicle: Klucel (hydroxypropylcellulose) (HPC) 101 % of control | dose: 200.0 mg/kg/injection, schedule: Q04DX003 (ip), vehicle: Klucel (hydroxypropylcellulose) (HPC) 94 % of control | dose: 400.0 mg/kg/injection, schedule: Q01DX009 (ip), vehicle: Klucel (hydroxypropylcellulose) (HPC) 99 % of control | dose: 400.0 mg/kg/injection, schedule: Q04DX003 (ip), vehicle: Klucel (hydroxypropylcellulose) (HPC) 105 % of control

CS(=O)(=O)Nc1ccccc1-c1nc2ccccc2c(=O)o1
inactive: dose: 50.0 mg/kg/injection, schedule: Q04DX002 (ip), vehicle: Klucel (hydroxypropylcellulose) (HPC) 98 % of control | [16] 98 % of control | [17] 98 % of control | [18] 92 % of control

O=C(O)COc1ccc(F)cn1
inactive: [16] 101 % of control | [17] 93 % of control | [18] 114 % of control

CC(=O)CC(=O)CC(O)(C(F)(F)F)C(F)(F)F
inactive: [1] 96 % of control

CP1(=S)CCC(=O)CC1
inactive: [9] 91 % of control | [10] 95 % of control | [11] 98 % of control

Cn1cnc2c1c(=N)ncn2O
inactive: dose: 100.0 mg/kg/injection, schedule: Q01DX001 (ip), vehicle: other 103 % of control | dose: 100.0 mg/kg/injection, schedule: Q04DX003 (ip), vehicle: other 107 % of control | dose: 200.0 mg/kg/injection, schedule: Q01DX001 (ip), vehicle: other 103 % of control | dose: 200.0 mg/kg/injection, schedule: Q04DX003 (ip), vehicle: other 113 % of control | dose: 400.0 mg/kg/injection, schedule: Q01DX001 (ip), vehicle: other 103 % of control | dose: 400.0 mg/kg/injection, schedule: Q04DX003 (ip), vehicle: other 113 % of control

OC(Cc1cccc(=S)[nH]1)(c1ccccc1)c1ccccc1
inactive: [12] 98 % of control | [13] 93 % of control | [19] 91 % of control

O=C(Nc1cc(C(F)(F)F)ccc1Cl)Oc1ccc(Cl)cc1Cc1ccccc1
inactive: dose: 25.0 mg/kg/injection, schedule: Q01DX009 (ip), vehicle: Klucel (hydroxypropylcellulose) (HPC) 93 % of control | dose: 50.0 mg/kg/injection, schedule: Q01DX009 (ip), vehicle: Klucel (hydroxypropylcellulose) (HPC) 88 % of control | [15] 101 % of control and 86 % of control and 88 % of control

CN=C(NC)NN
inactive: dose: 30.0 mg/kg/injection, schedule: Q01DX Z (ip), vehicle: methylcellulose (MC) 100 % of control | dose: 60.0 mg/kg/injection, schedule: Q01DX Z (ip), vehicle: methylcellulose (MC) 103 % of control | [9] 95 % of control | dose: 125.0 mg/kg/injection, schedule: Q01DX Z (oral), vehicle: methylcellulose (MC) 101 % of control | [10] 95 % of control | dose: 240.0 mg/kg/injection, schedule: Q01DX Z (ip), vehicle: methylcellulose (MC) 108 % of control | dose: 250.0 mg/kg/injection, schedule: Q01DX Z (oral), vehicle: methylcellulose (MC) 95 % of control | dose: 270.0 mg/kg/injection, schedule: Q01DX Z (ip), vehicle: saline 105 % of control | dose: 375.0 mg/kg/injection, schedule: Q01DX Z (ip), vehicle: methylcellulose (MC) 110 % of control | [11] 100 % of control | dose: 405.0 mg/kg/injection, schedule: Q01DX Z (ip), vehicle: saline 97 % of control | dose: 480.0 mg/kg/injection, schedule: Q01DX Z (ip), vehicle: methylcellulose (MC) 102 % of control | dose: 609.0 mg/kg/injection, schedule: Q01DX Z (ip), vehicle: saline 103 % of control

CC(=O)c1ccc(N)cc1
inactive: dose: 100.0 mg/kg/injection, schedule: Q01DX009 (ip), vehicle: other 94 % of control | dose: 100.0 mg/kg/injection, schedule: Q04DX002 (ip), vehicle: other 100 % of control | dose: 200.0 mg/kg/injection, schedule: Q01DX009 (ip), vehicle: other 102 % of control | dose: 200.0 mg/kg/injection, schedule: Q04DX002 (ip), vehicle: other 117 % of control | dose: 400.0 mg/kg/injection, schedule: Q04DX002 (ip), vehicle: other 114 % of control

CC(C)C1NC(=O)C(Cc2c[nH]c3ccccc23)NC1=O (stereo not given)
inactive: [12] 101 % of control | [13] 101 % of control | [19] 91 % of control

COC1=C(N2CC2)C(=O)c2ccccc2C1=O
inactive: [7] 109 % of control | [8] 101 % of control | [2] 101 % of control and 108 % of control

CCCCCCC(=O)N1CC(C)OC(C)C1 (stereo not given)
inactive: [16] 96 % of control | [17] 96 % of control
